{
  "source": "patent EP0765662A1",
  "about": "“HIV GROWTH INHIBITORY COMPOSITION” (Kochi, Mutsuyuki, priority 1994, dated 1995)",
  "key": {"ICR strain mice": {"tested_on": "ICR strain mice", "experiment": "Evaluation of toxicity (intravenous, mice)", "assay_type": "in vivo", "details": "intravenously, 1000 mg per kg body weight, male, 5 mice in each group", "method": "SBA in the form of a solution in a physiological saline (containing […]) was administered intravenously to ICR strain mice (5 week-aged, male, 5 mice in each group) at a dosage of 1000 mg per kg of the body weight of mice tested."}, "HIVBRU": {"tested_on": "HIVBRU", "experiment": "HIV-p24 antigen released from HIV-infected A3.01 cells stimulated with TNF-α", "assay_type": "cell-based", "details": "TNF-α 10 units/ml; for Amount of the HIV p24 antigen: HIV-infected A3.01 cells", "from_the_text": "In view of all these test results, it appears that the inhibitory activity of SBA against the replication of HIV-1 is not attributable to that SBA directly acts on HIV so as to make lose the infectivity (infectious power) of HIV. (c) Test of examining the inhibitory activity of SBA against such replication of the viral particles of HIV which is induced when a tumor necrosis factor (TNF-α) is introduced into the HIV-infected A3.01 cells AIDS virus, HIVBRU (its reverse transcriptase activity, 0.03 cpm/cell) and 6 x 10^6 cells of the A3.01 cell (HAT-susceptible CEM cell strain) were mixed and reacted together in a culture medium at 37°C for 1 hour, and thereafter the mixed cells were washed with PBS to remove the excess of the particles of HIV virus therefrom. The A3.01 cells (5 x 10^5 cells) which had been so infected with HIV were then cultivated in various culture media containing TNF-α and SBA at different concentrations of them. The amount of the HIV-p24 antigen (an HIV-structural protein of HIV) which was released in the culture supernatant from the cultivated cells under test was periodically measured during the period of between 0 day to 5th day of the cultivation. The culture medium used for the above-mentioned cultivation of the A3.01 cells was an RPM1-1640 medium comprising 10% of heat-treated embryonic bovine serum, and minor amounts of penicillin, streptomycin, glutamine and mercaptoethanol. The amount of the HIV-p24 antigen produced was measured with lapse of time, and the relationship of the amount of the HIV-p24 antigen to the concentration of SBA is summarily tabulated in Table 4 below.\nIn the tests above, the replication of the viral particles of HIV was examined in terms of the amount of the p24 antigen protein produced and appearing in the culture supernatant from the cultivated cells. Thus, the amount of the p24 antigen produced was measured periodically over 6 days after the A3.01 cells were infested with HIV. It was then observed that in the absence of SBA, the replication of the viral particles of HIV was induced in the A3.01 cells by stimulation with 10 units/ml of TNF-α added. […] Thus, the effective amount of SBA has the activity to inhibit the replication of the viral particles of HIV within the cells to an extent as same as AZT, and from this it is expected that SBA is useful similarly to AZT for the therapeutic treatments of AIDS. (d) Tests for evaluating an inhibitory activity of SBA to the formation of giant cells from HIV-infected Molt-4 cells In a similar manner to that in the above Test (c), Molt-4 cells (a CD4-positive human T-cell strain) were infected with AIDS virus, HIVBRU. Thereafter, The HIV-infected Molt-4 cells were mixed with such Molt-4 cells which had no HIV-infection. And the mixture of these cells were cultivated at a high density of the mixed cells in the above-mentioned improved RPM1-1640 medium containing SBA at its different concentrations. Whereupon, there was examined the presence of cell-fused cell(s) (namely, the giant cells) which were formed by fusion of the HIV-infected cells with each other or by fusion of the HIV-infected cells with the HIV-non-infected cells. The formation and appearance of the giant cells was confirmed by microscopic observation. The size of such giant cells is clearly different from the size of the other usual cells. […] Namely, it is shown that SBA has an anti-HIV activity. […] In the initial stage of the transcription of HIV-1 gene, said NFkB, i.e. the transcription regulating factor of the host cells, plays an important role. […] NFkB is known to be a complex protein which is composed by the association of a molecule of protein having a molecular weight of about 50,000 (p50) with a molecule of protein having a molecular weight of about 65,000 (p65). […]"}},
  "note": "Structures can show the parent of a compound that is named as a salt.",
  "data": [
    {"compound": "O=C1O[C@H]([C@@H]2COC(c3ccccc3)O2)C(O)=C1O", "note": "(stereo partly drawn) [SBA, 5,6-O-benzylidene-L-ascorbic acid mono-sodium salt]", "values": [
      {"measurement": "mortality", "setting": "ICR strain mice", "value": "None of the mice thus treated died"},
      {"measurement": "inhibition at 10 µg/mL", "setting": "HIVBRU; Human immunodeficiency virus 1, SBA 10 µg/ml, in comparison with the cases when SBA was absent, read-out: inhibition of the replication of the HIV viral particles", "value": 50, "unit": "%"},
      {"measurement": "Amount of the HIV p24 antigen", "setting": "HIVBRU; SBA 1 µg/ml, 0th day", "value": 0, "unit": "pg/mL"},
      {"measurement": "Amount of the HIV p24 antigen", "setting": "HIVBRU; SBA 1 µg/ml, 1st day", "value": 0, "unit": "pg/mL"},
      {"measurement": "Amount of the HIV p24 antigen", "setting": "HIVBRU; SBA 1 µg/ml, 2nd day", "value": 0, "unit": "pg/mL"},
      {"measurement": "Amount of the HIV p24 antigen", "setting": "HIVBRU; SBA 1 µg/ml, 3rd day", "value": 1400, "unit": "pg/mL"},
      {"measurement": "Amount of the HIV p24 antigen", "setting": "HIVBRU; SBA 1 µg/ml, 4th day", "value": 2600, "unit": "pg/mL"},
      {"measurement": "inhibition of the replication of the viral particles of HIV (in words)", "setting": "HIVBRU; SBA 1 µg/ml, 5th day from the HIV infection", "value": "considerably inhibited"},
      {"measurement": "Amount of the HIV p24 antigen", "setting": "HIVBRU; SBA 1 µg/ml, 5th day", "value": 4000, "unit": "pg/mL"},
      {"measurement": "Amount of the HIV p24 antigen", "setting": "HIVBRU; SBA 10 µg/ml, 0th day", "value": 0, "unit": "pg/mL"},
      {"measurement": "Amount of the HIV p24 antigen", "setting": "HIVBRU; SBA 10 µg/ml, 1st day", "value": 0, "unit": "pg/mL"},
      {"measurement": "Amount of the HIV p24 antigen", "setting": "HIVBRU; SBA 10 µg/ml, 2nd day", "value": 0, "unit": "pg/mL"},
      {"measurement": "Amount of the HIV p24 antigen", "setting": "HIVBRU; SBA 10 µg/ml, 3rd day", "value": 800, "unit": "pg/mL"},
      {"measurement": "Amount of the HIV p24 antigen", "setting": "HIVBRU; SBA 10 µg/ml, 4th day", "value": 1500, "unit": "pg/mL"},
      {"measurement": "Amount of the HIV p24 antigen", "setting": "HIVBRU; SBA 10 µg/ml, 5th day", "value": 2250, "unit": "pg/mL"},
      {"measurement": "Amount of the HIV p24 antigen", "setting": "HIVBRU; SBA 100 µg/ml, 0th day", "value": 0, "unit": "pg/mL"},
      {"measurement": "Amount of the HIV p24 antigen", "setting": "HIVBRU; SBA 100 µg/ml, 1st day", "value": 0, "unit": "pg/mL"},
      {"measurement": "Amount of the HIV p24 antigen", "setting": "HIVBRU; SBA 100 µg/ml, 2nd day", "value": 0, "unit": "pg/mL"},
      {"measurement": "Amount of the HIV p24 antigen", "setting": "HIVBRU; SBA 100 µg/ml, 3rd day", "value": 0, "unit": "pg/mL"},
      {"measurement": "Amount of the HIV p24 antigen", "setting": "HIVBRU; SBA 100 µg/ml, 4th day", "value": 0, "unit": "pg/mL"},
      {"measurement": "Amount of the HIV p24 antigen", "setting": "HIVBRU; SBA 100 µg/ml, 5th day", "value": 0, "unit": "pg/mL"},
      {"measurement": "inhibition of the replication of the viral particles of HIV (in words)", "setting": "HIVBRU; SBA 100 µg/ml", "value": "completely inhibited"}
    ]}
  ]
}
